Measurements: patent publication US10626110B2, “Polymorph of pazopanib hydrochloride and preparation process thereof” (FORMOSA LABORATORIES, INC., priority 2018, dated 2020)
Counter-ions that a name gives are not always drawn. Like-named read-outs stand apart in the source and are kept apart here.

Key:
[1] = Solubility analysis in 0.1 M HCl and phosphate buffer (pH 4.5 and pH 6.8); format: physicochemical
Description: The solubility of Pazopanib HCl Form F and Pazopanib HCl Form A in 0.1 M HCl and phosphate buffer (pH4.5 and pH6.8) was examined in the present analysis.

[2] = Stability / storage (statement only, no method described); format: physicochemical; conditions: no data given

| Solubility (descriptive term) ([1]; 0.1M HCl) | solubility ([1]; 0.1 M HCl, simulated gastric fluid, thermodynamic from solid, 0.1M HCl, read-out: Solubility) [µg/mL] | Solubility (descriptive term) ([1]; Phosphate buffer, pH 4.5) | Solubility (descriptive term) ([1]; Phosphate buffer, pH 6.8) | solubility ([1]; 0.1M HCl, hydrochloride) [µg/mL] | SMILES | Stability [2] | Solubility compared with Pazopanib HCl Form A ([1]; 0.1M HCl) |
| --- | --- | --- | --- | --- | --- | --- | --- |
| Very slightly soluble | 584 | Practically insoluble | Practically insoluble | – | Cc1ccc(Nc2nccc(N(C)c3ccc4c(C)n(C)nc4c3)n2)cc1S(N)(=O)=O [Pazopanib HCl Form A, Pazopanib hydrochloride] | – | – |
| Very slightly soluble | – | Practically insoluble | Practically insoluble | 669 | Cc1ccc(Nc2nccc(N(C)c3ccc4c(C)n(C)nc4c3)n2)cc1S(N)(=O)=O [Pazopanib HCl Form F, Pazopanib hydrochloride] | better stability, and can be stored for a long time | better solubility in 0.1 M HCl than Pazopanib HCl Form A |
